Here are results for two compounds from PMC6152064 (Molecules : A Journal of Synthetic Chemistry and Natural …, 2017).

“And” between values parts separate entries of the source, which are not always exact repeats. Equal values may be shown once.

In assay [1] the target is hGal3. The conditions noted are these: cited from earlier work.
Assay [2] deals with hGal1 (human galectin-1) (Homo sapiens, UniProt P09382). Put plainly: Isothermal titration calorimetry (ITC). The conditions noted are these: 298 K, PBS. For orientation: Isothermal titration calorimetry measures the heat released or taken up as one component is titrated into another.
Description: (§5) The experiments were carried out at 298 K and in PBS. […] The thermograms were extracted, processed and subjected to nonlinear regression using the built-in software based on Origin (OriginLab, Northampton, MA, USA) to determine the respective binding constants.
Assay [3] concerns the target T1, hGal8^CTD (C-terminal domain of human galectin-8) (Homo sapiens, UniProt O00214).
T1 construct: the N-terminal and C-terminal domains of galectin-8 (hGal8^NTD and hGal8^CTD, respectively); made in house; host or cells: Escherichia coli BL21 (DE3)
T1 sequence (O00214 187-317 limits assumed): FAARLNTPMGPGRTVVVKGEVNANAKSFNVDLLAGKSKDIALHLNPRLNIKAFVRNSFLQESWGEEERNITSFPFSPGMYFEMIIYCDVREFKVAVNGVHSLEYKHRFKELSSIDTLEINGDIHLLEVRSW
Put plainly: 2D NMR lineshape analysis (TITAN), two-state binding model. The conditions noted are these: 298 K. The procedure: (§1) HSQC spectra were also analysed by the TITAN program using a two-state binding model. […] Eight peaks with significant CSPs were chosen to be fitted for each titration experiment. Error analysis was performed by the bootstrap resampling module in the program with 100 resampled spectra.

Assay [4] has as its target T2, hGal8^NTD (N-terminal domain of human galectin-8) (Homo sapiens, UniProt O00214).
T2 construct: hexahistidine tag (N); made in house; host or cells: Escherichia coli BL21 (DE3)
T2 sequence (O00214 1-155 limits assumed): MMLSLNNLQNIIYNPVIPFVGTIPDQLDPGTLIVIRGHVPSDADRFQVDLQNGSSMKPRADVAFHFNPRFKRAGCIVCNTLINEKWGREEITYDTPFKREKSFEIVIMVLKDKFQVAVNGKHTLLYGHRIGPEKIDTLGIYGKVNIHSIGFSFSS
The assay is described as above. The conditions noted are these: Lactose Kd, 298 K. As for the experimental part:
as §1

For assay [5], the target named is T1, hGal8^CTD (C-terminal domain of human galectin-8). Put plainly: NMR titration, global fit of chemical shift perturbations (CSP). The format is binding. The conditions noted are these: 298 K, global fit of CSPs > 2σ.
In assay [6] the target is T3, hGal7 (Homo sapiens, UniProt P47929).
T3 construct: The constructs encoding the open reading frames of hGal1, hGal7 and hGal8 with a hexahistidine tag at the N-termini; hexahistidine (N); made in house; host or cells: Escherichia coli BL21 (DE3)
Put plainly: Lactose binding affinity, summary over NMR, intrinsic fluorescence, BLI and ITC. As for the experimental part: (§2) The samples were subjected to intrinsic fluorescence measurements using a 3 mm quartz cell (Hellma) and a fluorimeter (Jasco FP-8500, Hachioji, Tokyo, Japan). […] The resulting titration data were processed by SVD analysis, as described previously.
(§3) BLI experiments were carried out using an Octet Red96 system (FortéBio, Menlo Park, CA, USA), as described previously.
as §1

Assay [7] concerns the target T4, hGal8^full(CTD) (CTD of full-length galectin-8) (Homo sapiens, UniProt O00214).
T4 sequence (O00214 1-317): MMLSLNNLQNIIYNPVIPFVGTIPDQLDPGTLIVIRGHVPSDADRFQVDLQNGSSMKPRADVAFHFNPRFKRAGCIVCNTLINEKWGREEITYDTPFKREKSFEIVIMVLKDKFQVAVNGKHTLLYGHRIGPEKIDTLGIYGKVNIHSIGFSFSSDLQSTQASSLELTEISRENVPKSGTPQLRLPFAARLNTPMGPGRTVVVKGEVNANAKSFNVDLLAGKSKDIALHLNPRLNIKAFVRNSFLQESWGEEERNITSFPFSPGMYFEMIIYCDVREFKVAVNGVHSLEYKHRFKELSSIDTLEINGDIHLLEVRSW
Put plainly: NMR titration, global fit of chemical shift perturbations (CSP). To be noted: Lactose Kd, CTD of full-length hGal8 (tandem-repeat, 17-residue linker), 298 K.

In assay [8] the target is T5, hGal7 (human galectin-7) (Homo sapiens, UniProt P47929). Put plainly: 2D NMR lineshape analysis (TITAN), two-state binding model. Details: The constructs encoding the open reading frames of hGal1, hGal7 and hGal8 with a hexahistidine tag at the N-termini; hexahistidine tag (N); made in house; host or cells: Escherichia coli BL21 (DE3). To be noted: 298 K. As for the experimental part: as §1

Assay [9] addresses T6, hGal8^NTD (Homo sapiens, UniProt O00214).
T6 sequence (O00214 1-155 limits assumed): T2 sequence (O00214 1-155 limits assumed)
Put plainly: Isothermal titration calorimetry (ITC).
Description: as §5

Assay [10] concerns the target T7, hGal8^CTD (Homo sapiens, UniProt O00214).
T7 sequence (O00214 187-317 limits assumed): T1 sequence (O00214 187-317 limits assumed)
Put plainly: Isothermal titration calorimetry (ITC).
Description: as §5

The target in assay [11] is T5, hGal7 (human galectin-7). Put plainly: NMR titration, global fit of chemical shift perturbations (CSP). The format is binding. On the set-up: The constructs encoding the open reading frames of hGal1, hGal7 and hGal8 with a hexahistidine tag at the N-termini; hexahistidine tag (N); made in house; host or cells: Escherichia coli BL21 (DE3). The conditions noted are these: 298 K, global fit of CSPs > 2σ.

Assay [12] deals with T4, hGal8^full(CTD) (CTD of full-length galectin-8). Put plainly: 2D NMR lineshape analysis (TITAN), two-state binding model. On the set-up: A full-length hGal8 (hGal8^full) variant encompassing a 17-residue linker was used; hexahistidine tag (N); made in house; host or cells: Escherichia coli BL21 (DE3). To be noted: CTD of full-length hGal8 (N215), 298 K. As for the experimental part: (§4) The advantage of using NMR titration to determine Kd values is the ability to simultaneously characterise microscopy binding events at different binding sites. […] The same lineshape analysis was performed for hGal8^full titration experiments, which yielded similar Kd values to those derived from CSP data (Figure S2; Table 1).
as §1

For assay [13], the target named is T8, hGal8^full(NTD) (NTD of full-length galectin-8) (Homo sapiens, UniProt O00214).
T8 sequence (O00214 1-317): T4 sequence (O00214 1-317)
The assay is described as above. The conditions noted are these: NTD of full-length hGal8 (G127), 298 K. Details: A full-length hGal8 (hGal8^full) variant encompassing a 17-residue linker was used; hexahistidine tag (N); made in house; host or cells: Escherichia coli BL21 (DE3). As for the experimental part: as §4, §1

For assay [14], the target named is T6, hGal8^NTD. Put plainly: Intrinsic tryptophan fluorescence titration (SVD analysis). It counts as binding. Details: hexahistidine tag (N); made in house; host or cells: Escherichia coli BL21 (DE3). To be noted: 298 K, PBS, 10 μM protein.
Source text: as §2

Assay [15] addresses T8, hGal8^full(NTD) (NTD of full-length galectin-8). Put plainly: NMR titration, global fit of chemical shift perturbations (CSP). To be noted: Lactose Kd, NTD of full-length hGal8 (tandem-repeat, 17-residue linker), 298 K.
Assay [16] concerns the target T5, hGal7 (human galectin-7). Put plainly: Isothermal titration calorimetry (ITC).
Description: as §5
The target of assay [17] is T7, hGal8^CTD. Put plainly: Intrinsic tryptophan fluorescence titration (SVD analysis). It counts as binding. Details: hGal8 N-terminal domain (hGal8^NTD) and C-terminal domain (hGal8^CTD); made in house; host or cells: Escherichia coli BL21 (DE3). The conditions noted are these: 298 K, PBS, 10 μM protein.
Source text: as §2

Assay [18] concerns the target T7, hGal8^CTD. Put plainly: Lactose binding affinity, summary over NMR, intrinsic fluorescence, BLI and ITC. Details: hGal8 N-terminal domain (hGal8^NTD) and C-terminal domain (hGal8^CTD); made in house; host or cells: Escherichia coli BL21 (DE3). To be noted: summary over the biophysical tools. As for the experimental part:
as §2, §3, §1

In assay [19] the target is T2, hGal8^NTD (N-terminal domain of human galectin-8). Put plainly: NMR titration, global fit of chemical shift perturbations (CSP). To be noted: 298 K, global fit of CSPs > 2σ. It counts as binding.
Assay [20] deals with T7, hGal8^CTD. Put plainly: Bio-layer interferometry (BLI), steady-state fit. On the set-up: hGal8 N-terminal domain (hGal8^NTD) and C-terminal domain (hGal8^CTD); made in house; host or cells: Escherichia coli BL21 (DE3). The conditions noted are these: biotinylated galectin on SSA biosensor. The format is binding. As for the experimental part: as §3
(In general: BLI is a label-free optical method that tracks binding on a fibre tip over time.)

Assay [21] deals with T5, hGal7 (human galectin-7). Put plainly: Bio-layer interferometry (BLI), steady-state fit. It counts as binding. Details: The constructs encoding the open reading frames of hGal1, hGal7 and hGal8 with a hexahistidine tag at the N-termini; hexahistidine tag (N); made in house; host or cells: Escherichia coli BL21 (DE3). To be noted: biotinylated galectin on SSA biosensor. As for the experimental part:
as §3

Assay [22] deals with T5, hGal7 (human galectin-7). Put plainly: Intrinsic tryptophan fluorescence titration (SVD analysis). It counts as binding. To be noted: Lactose Kd, 298 K, PBS, 10 μM protein. On the set-up: The constructs encoding the open reading frames of hGal1, hGal7 and hGal8 with a hexahistidine tag at the N-termini; hexahistidine tag (N); made in house; host or cells: Escherichia coli BL21 (DE3).
Source text: as §2

For assay [23], the target named is T6, hGal8^NTD. Put plainly: Lactose binding affinity, summary over NMR, intrinsic fluorescence, BLI and ITC. Details: hexahistidine tag (N); made in house; host or cells: Escherichia coli BL21 (DE3). The conditions noted are these: summary over the biophysical tools. As for the experimental part: as §2, §3, §1
For assay [24], the target named is GST-fused hGal8^CTD. Details: method as in PMID 12851289. The conditions noted are these: read-out: lactose Kd (SPR); cited from earlier work.
The target in assay [25] is glutathione-S-transferase (GST)-fused hGal8^NTD. Details: method as in PMID 12851289. The conditions noted are these: read-out: lactose Kd (SPR); cited from earlier work.
Assay [26] has as its target T6, hGal8^NTD. Put plainly: Bio-layer interferometry (BLI), steady-state fit. On the set-up: hexahistidine tag (N); made in house; host or cells: Escherichia coli BL21 (DE3). The conditions noted are these: biotinylated galectin on SSA biosensor. It counts as binding. As for the experimental part:
as §3

Assay [27] deals with GST-fused tandem-repeat construct (hGal8). On the set-up: method as in PMID 12851289. To be noted: read-out: apparent lactose Kd (SPR); cited from earlier work.

Chain of hGal1 (human galectin-1) (P09382 whole entry, the tested form may be a part): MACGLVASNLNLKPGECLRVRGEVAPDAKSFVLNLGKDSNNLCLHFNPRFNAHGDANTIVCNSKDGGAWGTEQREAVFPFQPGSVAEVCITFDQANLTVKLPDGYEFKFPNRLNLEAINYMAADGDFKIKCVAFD
T5 sequence (P47929 whole entry): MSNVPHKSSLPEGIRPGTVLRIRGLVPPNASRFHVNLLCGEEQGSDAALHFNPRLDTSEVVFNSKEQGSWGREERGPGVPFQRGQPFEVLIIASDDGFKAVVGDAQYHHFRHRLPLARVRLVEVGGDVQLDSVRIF
T3 sequence (P47929 whole entry): as above

With `OC[C@H]1O[C@@H](S[C@@H]2O[C@H](CO)[C@H](O)[C@H](n3cc(-c4cccc(F)c4)nn3)[C@H]2O)[C@H](O)[C@@H](n2cc(-c3cccc(F)c3)nn2)[C@H]1O` [TD139], in [1], the Kd entry is on record as “low nanomolar”.
`OC[C@H]1O[C@@H](O[C@H]2[C@H](O)[C@@H](O)C(O)O[C@@H]2CO)[C@H](O)[C@@H](O)[C@H]1O` (mixture of isomers) [Lactose, lactose]: the “N (ITC OneSites model)” value in assay [2] is 1.51 ± 0.113 sites; in [9] (hGal8^NTD, 298 K, PBS), 0.818 ± 0.0154 sites; in assay [10] (hGal8^CTD, 298 K, PBS) it was 1.68 ± 0.212 sites; in assay [16] (hGal7, 298 K, PBS) it was 0.0702 ± 0.00475 sites. Further, the “ΔH (ITC OneSites model)” value is -5.772 ± 0.4897 kcal/mol in [2]; -1.466E4 ± 302.2 cal/mol in assay [9] (hGal8^NTD, 298 K, PBS); -3.045 ± 0.4012 kcal/mol in assay [10] (hGal8^CTD, 298 K, PBS); -1.883E4 ± 1326 cal/mol in assay [16] (hGal7, 298 K, PBS). Besides, the “ΔS (ITC OneSites model)” value in assay [2] was -2.53 cal/mol/deg; in [9] (hGal8^NTD, 298 K, PBS), -30.7 cal/mol/deg; in assay [10] (hGal8^CTD, 298 K, PBS) it was 3.74 cal/mol/deg; in assay [16] (hGal7, 298 K, PBS), -47.2 cal/mol/deg. The Kd in [3] was 950 ± 10 µM; in assay [4], 86.3 µM and 86 µM; in assay [5], 664 ± 59 µM; in assay [6] it was around 350 µM; in assay [7], ~1500 µM and 1480 µM; in assay [8], 352 ± 9 µM. In addition, the Kd in assay [9] turned out to be 93 ± 1 µM; in assay [10], 893 ± 25 µM; in [11], 397 ± 14 µM; in assay [12], 1186 ± 11 µM; in assay [13] it was 167 ± 7 µM; in [14] it was 88 ± 2 µM. Moreover, the Kd was ~130 µM and 128 µM in assay [15]; 323 µM in assay [16]; 772 ± 56 µM in assay [17]; 664 to 950 µM and 800 µM in assay [18]; 84 ± 9 µM in assay [19]; 873 ± 526 µM in [20]. Further, the Kd in assay [21] was 347 ± 180 µM; in [22] it was 340 µM and 331 µM; in [23], 84 to 93 µM and 80 µM; in [24], 440 µM; in assay [25], 80 µM; in assay [26], 89 ± 26 µM. Moreover, the Kd in [27] is 140 µM. Moreover, the “K (binding constant, ITC OneSites model)” value is recorded as 1.08E4 ± 121 M-1 in assay [9] (hGal8^NTD, 298 K, PBS) and 1.12E3 ± 31.0 M-1 in assay [10] (hGal8^CTD, 298 K, PBS).
